Data on 16 compounds can be found in PubChem BioAssay (NCI).

Some test systems named below: M14 melanoma; M19-MEL melanoma; RXF 393 renal; HCC-2998 colon; DMS 273 small cell lung; HOP-18 NSCLC; DLD-1 colon; LXFL 529 NSCLC; HOP-92 NSCLC; HS 578T breast; DU-145 prostate; T-47D breast.
Holding throughout (experiment): inhibition of tumour cell growth, NCI panel, 48 h

Molecules are shown by their SMILES.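 1) Cells in 96-well plates. 2) Compound, 48 h, 5 concentrations. 3) Linear interpolation between surrounding doses. 4) Unreached endpoint = highest concentration. TGI marks complete inhibition of growth.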 Where only a bound is given, the exact number is not on record here.

For the compound `COc1cc2c(cc1OC)C1(c3ccc(Cl)cc3)ON=C(c3ccccc3)N1CS2` (stereo not drawn), the TGI in the assay on M14 melanoma, in the assay on M19-MEL melanoma, with RXF 393 renal, in the assay on HCC-2998 colon, in the assay with DMS 273 small cell lung and in the assay on HOP-18 NSCLC was above 100 µM each time. Moreover, the TGI with DLD-1 colon, in the assay with LXFL 529 NSCLC and in the assay with HOP-92 NSCLC was above 100 µM in each case.

Take `Cc1ccc(/C(O)=C/C(=O)C(=O)NN=C(c2ccccc2)c2ccccc2)cc1`: the TGI in the assay on M14 melanoma, in the assay with HS 578T breast, with RXF 393 renal, with DU-145 prostate, in the assay with HCC-2998 colon and in the assay on T-47D breast was above 100 µM in each case. In the assay with HOP-92 NSCLC, this compound came in with a TGI above 100 µM.

As for `COC(=O)C1=C(C)N2[C@H](C(=O)O)CO[C@@]2(C)[C@H](C(=O)OC)[C@H]1c1cccc([N+](=O)[O-])c1`, the TGI in the assay on M14 melanoma, in the assay with HS 578T breast, in the assay with RXF 393 renal, with DU-145 prostate, in the assay on HCC-2998 colon and with T-47D breast was above 100 µM in each case. The compound further displayed a TGI in the assay on HOP-92 NSCLC above 100 µM.

As for `CC(NC(C)(C)C)C(=O)c1cccc(Cl)c1` (stereo not drawn), the TGI in the assay with M14 melanoma, with M19-MEL melanoma, in the assay with RXF 393 renal, in the assay on HCC-2998 colon, in the assay with DMS 273 small cell lung and with DLD-1 colon was above 100 µM each time. Also, the TGI in the assay with LXFL 529 NSCLC is above 100 µM.

Turning to `O=C(Cc1ccccc1)NN1C(=O)C(Cl)C1c1ccccc1O` (stereo not drawn), the TGI in the assay with M14 melanoma is 30.9 µM; with M19-MEL melanoma, 89.6 µM; in the assay on RXF 393 renal it was above 100 µM; with HCC-2998 colon, above 100 µM; with DMS 273 small cell lung it was above 100 µM; in the assay on HOP-18 NSCLC, 61.2 µM. Also, the TGI in the assay on DLD-1 colon and in the assay on LXFL 529 NSCLC was above 100 µM each time.

As for `CCN(c1cccc(NC(=S)Nc2ccccc2N(CC)c2cc(-c3ccccc3)no2)c1)c1cc(-c2ccccc2)no1`, the TGI in the assay on M14 melanoma, in the assay on HS 578T breast, in the assay on RXF 393 renal, in the assay on DU-145 prostate, with HCC-2998 colon and with T-47D breast was above 100 µM each time. In the assay with HOP-92 NSCLC, this compound showed a TGI above 100 µM.

For the compound `c1ccc(CSCCc2ccncc2)cc1`, the TGI with M14 melanoma, with HS 578T breast, in the assay with RXF 393 renal, in the assay on DU-145 prostate, in the assay with HCC-2998 colon and in the assay with T-47D breast was above 100 µM throughout. The compound further came in with a TGI in the assay with HOP-92 NSCLC above 100 µM.

In the case of `Cc1ccc2nc(NC(=O)/C(Cc3nc4ccc(Cl)cc4[nH]c3=O)=N\NC(C)(C)C)sc2c1`, the TGI in the assay on M14 melanoma was above 100 µM; with HS 578T breast, 73 µM; in the assay on RXF 393 renal it was above 100 µM; with DU-145 prostate, above 100 µM; with HCC-2998 colon, above 100 µM; in the assay with T-47D breast it was above 100 µM. Further, in the assay on HOP-92 NSCLC, the TGI was above 100 µM.

Turning to `COc1nc(N)c(N=CC(OC(C)=O)C(OC(C)=O)C(COC(C)=O)OC(C)=O)c(=O)n1C` (stereo not drawn), the TGI in the assay with M14 melanoma, in the assay on HS 578T breast, in the assay with RXF 393 renal, in the assay with DU-145 prostate, in the assay with HCC-2998 colon and in the assay with T-47D breast was above 100 µM each time. The same compound yielded a TGI in the assay with HOP-92 NSCLC above 100 µM.

For `CCOC(=O)CSc1nnc(C(Sc2nc(-c3ccccc3)c(-c3ccccc3)[nH]2)C(C)C)n1-c1ccccc1` (stereo not drawn), the TGI in the assay on M14 melanoma is 20.1 µM; in the assay with M19-MEL melanoma it was above 10 µM; in the assay on RXF 393 renal it was 67.1 µM; in the assay on DU-145 prostate, above 100 µM; in the assay on HCC-2998 colon, 43.5 µM; in the assay on DMS 273 small cell lung, above 10 µM. The TGI is above 10 µM in the assay on DLD-1 colon, above 10 µM with LXFL 529 NSCLC, above 100 µM in the assay on T-47D breast and above 10 µM in the assay with HOP-92 NSCLC.

In the case of `O=C(/C=C/c1csc(-c2ccccc2)n1)NCc1ccc(C(=O)NCc2ccccc2)cc1`, the TGI in the assay on M14 melanoma, in the assay with HS 578T breast, in the assay with RXF 393 renal, in the assay with DU-145 prostate, in the assay with HCC-2998 colon and with T-47D breast was above 100 µM throughout. For the same compound, the TGI in the assay with HOP-92 NSCLC is above 100 µM.

As to `O=c1onc2c3ccccc3ncn12`, the TGI in the assay on M14 melanoma, in the assay with HS 578T breast, with RXF 393 renal, in the assay on DU-145 prostate, in the assay with HCC-2998 colon and in the assay on T-47D breast was above 100 µM throughout. For the same compound, the TGI with HOP-92 NSCLC is above 100 µM.

Turning to `COC(=O)CC1NC(=O)C1C1(C)OCCO1` (stereo not drawn), the TGI in the assay with M14 melanoma, with M19-MEL melanoma, in the assay with RXF 393 renal, with HCC-2998 colon, with DMS 273 small cell lung and in the assay with DLD-1 colon was above 100 µM each time. The compound also yielded a TGI in the assay with LXFL 529 NSCLC above 100 µM.

Consider `Cc1cc(O)c(C(C)C)cc1C1(c2cc(C(C)C)c(O)cc2C)OC(=O)c2ccccc21`, for which the TGI in the assay on M14 melanoma was 3.15 µM; with HS 578T breast, 6.88 µM; in the assay with RXF 393 renal it was 3.02 µM; with DU-145 prostate, 4.41 µM; in the assay on HCC-2998 colon it was 3.48 µM; with T-47D breast, 6.44 µM. In the assay on HOP-92 NSCLC, this compound displayed a TGI of 7.78 µM.

Regarding `O=C(CSC1=NCCN1)Nc1ccccc1`, the TGI in the assay on M14 melanoma is above 100 µM; in the assay with HS 578T breast, 65.9 µM; in the assay on RXF 393 renal, 33.3 µM; in the assay on DU-145 prostate it was above 100 µM; in the assay with HCC-2998 colon, 63.1 µM; in the assay on T-47D breast, 61.2 µM. In addition, in the assay on HOP-92 NSCLC, the TGI was determined as 91 µM.

On to `COC(=O)C1=C(OC(=O)c2ccccc2)C(C(=O)OC)[C@]2(O)[C@@H](C(=O)OC)[C@H]1C[C@@H](c1ccccc1)[C@@H]2C(=O)OC` (stereo partly drawn), for which the TGI with M14 melanoma stood at 9.57 µM; in the assay with HS 578T breast, 72.2 µM; with RXF 393 renal, 19.8 µM; with DU-145 prostate, 30.3 µM; in the assay with HCC-2998 colon, 25 µM; in the assay with T-47D breast, 33.8 µM. The TGI with HOP-92 NSCLC came out at 27.3 µM.
